Source: US20110144125A1, “Anti-Arrhythmia Agents, Methods of Their Use, Methods of Their Identification and Kits Therefore” (THE UAB RESEARCH FOUNDATION, priority 2008, published 2011)
Where a name gives a salt, the structure may show the parent alone. One block for each compound: values may come before it.

Tests used:
[1] = system: rat left atria; experiment: Spontaneous tachycardic activity (STA) in isolated rat left atria exposed to 2-APB under increased calcium load
Experimental: Male Sprague-Dawley rats (325-400 g) were anesthetized with intra-peritoneal pentobarbital (0.1 g/kg). Their right and left atria were isolated, superfused at 30° C. in Krebs-Henseleit buffer, and nearly isometric forces of contraction were measured from these muscles (Wolkowicz et al., 2002). 2-APB was prepared as a 150 mM dimethyl sulfoxide stock.
Left atria (n=8 per group) were paced at 3 Hz and (i) titrated with 0 to 30 nM isoproterenol (Ahlquist, 1970) or (ii) exposed to 3 μM forskolin (Laurenza et al., 1980). Left atrial force and frequency of contraction, the time to peak tension and relaxation times were recorded after a 3-5 min exposure to forskolin or to any concentration of isoproterenol. The 3 Hz pacing stimulus was interrupted at the end of these protocols to measure SMEs.
(§1) Left atria (n=10 per group) were paced at 0.1 Hz and treated with (i) 20 μM 2-APB for 10 min, (ii) with 30 nM isoproterenol for 5 min followed by 20 μM 2-APB for 10 min, and (iii) with 3 μM forskolin for 5 min followed by 20 μM 2-APB for 10 min.
Left atrial contraction and relaxation times were recorded at these five times, the pacing stimulus was stopped and rates of SMA were recorded. To determine whether initial pacing rate affects left atrial response to 2-APB and isoproterenol, left atria (n=5-7 per group) were paced at 3 Hz and (i) remained untreated for 15 min, (ii) were treated with 20 μM 2-APB alone for 10 min, or (ii) were treated with 30 nM isoproterenol for 5 min followed by 20 μM 2-APB for 10 min. Atrial mechanical function was measured at these four times; the pacing stimulus then was stopped and rates of SMA were recorded.
Left atria (n=6 per group) were paced at 3 Hz, titrated with 0 to 300 nM (−)BayK 8644 ([…]-1,4-Dihydro-2,6-dimethyl-5-nitro-4-[2-(trifluormethyl)phenyl]-3-pyridinecarboxylic acid methyl ester; Franckowiak et al. 1985) or FPL-64176 ((2,5-Dimethyl-4-[2-(phenylmethyl)benzoyl]-111-pyrrole-3-carboxylic acid methyl ester; Zheng et al., 1991) and their mechanical function and rates of SMA were recorded after a 5 min exposure to any concentration of slow calcium channel activator.
Left atria (n=8 per group) were paced at 0.1 Hz, exposed to 300 nM BayK 8644 or FPL-64176 for 5 min followed by 20 μM 2-APB for 10 min. Atrial mechanical function was recorded at this time; the pacing stimulus then was stopped and rates of SMA were recorded.
To test whether ryanodine receptor calcium leak produces SMA, left atria (n=6 per group) were paced at 0.1 Hz, treated with 0 or 300 nM BayK 8644 for 5 min, and then exposed to 600 nM ryanodine (Sutko et al., 1997). Atrial mechanical function and rates of SMA were recorded 20 min after exposure to ryanodine.
Rates of SMA were measured 5 min later.
Left atria (n=7) were paced at 3 Hz, treated with 120 μM ouabain (Illanes and Marshall, 1964), and any change in mechanical function was recorded at a new steady state, ˜10 min later. These atria were exposed to 20 μM 2-APB and their mechanical function and rates of SMA were recorded 10 min later.
3 Hz-paced left atria (n=9 per group) were superfused (i) in Krebs-Henseleit alone or (ii) they were treated with 20 μM 2-APB for 10 min, (iii) with 300 nM BayK 8644 for 10 min and with 20 μM 2-APB for 10 min, or (iv) they were treated with 300 nM BayK 8644 and 20 μM 2-APB for 10 min, then with 70 μM zatebradine (3-[3-[[2-(3,4-Dimethoxyphenyl)ethyl]methylamino] propyl]-1,3,4,5-tetrahydro-7,8,-dimethoxy-2H-3-benzazepin-2-one hydrochloride) for 10 min (Baruscotti et al., 2005). Pacing was interrupted at these times and rates of SMA were recorded.

[2] = system: rat left atrial appendage; experiment: 2-APB-induced spontaneous mechanical activity (SMA/SMEs) in isolated superfused rat left atria / left atrial appendage; conditions: for prevention of electromechanical instability in model of abnormal automaticity (FIG. 6): polyphenol then 2-APB; for concentration at which SMA is reduced (reversal): recorded ˜10 min after addition; for time to reversal of SMA after exposure: 20 μM 2-APB-induced SMA; for effect on sporadic ectopic activity (SMA): 2-APB-treated appendages, known anti-arrhythmic agents, lidocaine data not shown
Experimental: Left atria were isolated from male Sprague-Dawley rats (325 to 400 g) under IP pentobarbital anesthesia (0.1 g/kg). Isolated left atria were superfused at 30° C. in Krebs-Henseleit (KH) buffer of the following mM composition: NaCl, 118; NaHCO3, 27; KCl, 4.8; MgSO4, 1.2; KH2PO4, 1.0; CaCl2, 1.8; and glucose, 11.1. Nearly isometric left atrial forces of contraction were measured as described.
Isolated superfused left atria were paced at 3 Hz. 2-APB was added to atrial superfusates from 0.015 or 0.15M DMSO stock solutions to achieve concentrations of 0, 2, 7.5, 15, or 22 μM (n=5 to 10 atria per concentration). Changes in atrial mechanical force were recorded during a subsequent 15 min superfusion.
Two groups of 5 to 6, 3 Hz paced atria were superfused in KH and exposed to 0 or 15 μM 2-APB for 10 min. The pacing stimulus was interrupted for 5 min and the number of spontaneous mechanical events (SMEs), defined as increases in mechanical force occurring in the absence of pacing, were measured as was the postrest potentiation response (PRP).
To determine whether diastolic interval affected the interaction between 2-APB and left atria, atrial pacing was decreased to 0.1 Hz, and 0, 7.5, or 22 μM 2-APB was added to the superfusate (n=6-8 per group). Superfusions continued for 15 min, and changes in atrial mechanical function were observed.
To establish whether SMA was reversible, atria (n=7) were paced at 0.1 Hz, exposed to 15 μM 2-APB for 10 min, and washed with KH. The effect of removing 2-APB on atrial mechanical function was recorded.
To test whether an anion transport inhibitor affected SMA, atria (n=7) were paced at 0.1 Hz in KH and exposed to 15 μM 2-APB. Following the appearance of SMA, they were titrated with 100 to 400 μM DIDS for 3 to 5 min at each concentration. Whether SMA occurred at the end of each titration period was recorded.
as §1
The appendages then were titrated with increasing concentrations of 2-APB, and SMA was measured and recorded.
(§2) To determine the anti-arrhythmic activity of gossypol, isolated rat left atrial appendage and right ventricular muscle strips were used as model systems, as described above. Heart muscle was exposed to 20 μM 2-APB for 10 min to induce SMA, and rates of SMA were recorded as a percentage of initial SMA. The muscles then were titrated with up to 5 increasing concentrations of gossypol. Rates of SMA were recorded ˜10 min after the addition of concentration of the polyphenol.
To determine whether EGCG can prevent arrhythmia, rat left atrial appendages (n=9) were exposed to 20 μM 2-APB and rates of SMA were recorded. Groups of muscles (n=6 per) were pre-treated with 30 μM EGCG for 10 min following which they were exposed to 2-APB. Rates of SMA were recorded 10 min later.
as §2, with “whether EGCG is effective to reverse arrhythmia,” for “the anti-arrhythmic activity of gossypol,”, “Rat left atrial appendages were” for “Heart muscle was”, “left atrial appendages” for “muscles”, “the following polyphenols: EGCG, gossypol, resveratrol, and quercetin.” for “gossypol.”
To determine whether EGC can prevent arrhythmia, left atrial appendages (n=9) were exposed to 20 μM 2-APB and rates of SMA were recorded. Groups of appendages (n=6 per) were pre-treated with 30 μM EGC for 10 min following which they were exposed to 2-APB.

[3] = pre-treated with 30 μM for 10 min, then 20 μM 2-APB for 10 min
[4] = 20 μM 2-APB for 10 min, then titration

Compound: C=C[C@@]1(C)CC(=O)[C@]2(O)[C@@]3(C)[C@@H](O)CCC(C)(C)[C@@H]3[C@H](O)[C@H](OC(C)=O)[C@@]2(C)O1 [forskolin]
rate of STA (SMA frequency) in presence of 2-APB and calcium loading agent ([1]; 20 μM 2-APB plus 30 nM isoproterenol, 3 μM forskolin, 300 nM BayK 8644, 300 nM FPL-64176 or 120 μM ouabain, absence of pacing, 30° C.): 231±5 contractions/min

Compound: Oc1ccc(C=Cc2cc(O)cc(O)c2)cc1 [resveratrol, 5-[2-(4-hydroxyphenyl)ethenyl]benzene-1,3-diol]
prevention of electromechanical instability in model of abnormal automaticity (FIG. 6) [2]: prevent the electromechanical instability
SMEs after pre-treatment (prevention of SMA) [2, 3]: no SMEs

Compound: O=C(O[C@H]1Cc2c(O)cc(O)cc2O[C@H]1c1cc(O)c(O)c(O)c1)c1cc(O)c(O)c(O)c1 [EGCG, (−)-cis-2-(3,4,5-Trihydroxyphenyl)-3,4-dihydro-1(2H)-benzopyran-3,5,7-triol 3-gallate]
concentration at which SMA is reduced (reversal) [2, 4]: ≥ 20 µM
reversal of SMA ([2]; 20 μM 2-APB, unpaced, 40 μM EGCG added to the muscle bath): SMA ceased
time to reversal of SMA after exposure [2]: ≤ 10 min
prevention of electromechanical instability in model of abnormal automaticity (FIG. 6) [2]: prevent the electromechanical instability
SMEs after pre-treatment (prevention of SMA) [2, 3]: no SMEs

Compound: O=C(NCC1CCCCN1)c1cc(OCC(F)(F)F)ccc1OCC(F)(F)F (stereo not shown) [flecainide]
effect on sporadic ectopic activity (SMA) [2]: suppress this arrhythmic activity
effect on sporadic ectopic activity (SMA) ([2]; listed as Flecainide): suppresses SMA

Compound: CCOC(=O)C1=C(N)Oc2ccc(Br)cc2C1C(C#N)C(=O)OCC (stereo not shown) [HA14-1, ethyl 2-amino-6-bromo-4-(1-cyano-2-ethoxy-2-oxoethyl)-4H-chromene-3-carboxylate]
effect on SMA when added after 2-APB (reversal) ([2]; HA14-1 added 10 min after exposure to 2-APB): no effect on SMA
SMEs after pre-treatment (prevention of SMA) ([2]; pre-treated with 30 μM HA14-1, 2-APB 15 μM and above, vs untreated appendages): significantly fewer SMEs

Compound: Oc1cc(O)c2c(c1)O[C@@H](c1cc(O)c(O)c(O)c1)[C@@H](O)C2 [EGC, (−)-cis-2-(3,4,5-trihydroxyphenyl)-3,4-dihydro-1(2H)-benzopyran-3,5,7-triol]
prevention of electromechanical instability in model of abnormal automaticity (FIG. 6) [2]: prevent the electromechanical instability
SMEs after pre-treatment (prevention of SMA) [2, 3]: no SMEs

Compound: Cc1cc2c(C(C)C)c(O)c(O)c(C=O)c2c(O)c1-c1c(C)cc2c(C(C)C)c(O)c(O)c(C=O)c2c1O [gossypol, 7-(8-formyl-1,6,7-trihydroxy-3-methyl-5-propan-2-ylnaphthalen-2-yl)-2,3,8-trihydroxy-6-methyl-4-propan-2-ylnaphthalene-1-carbaldehyde]
concentration at which SMA dropped to zero (reversal) [2, 4]: ≥ 20 µM
concentration at which SMA is reduced (reversal) [2, 4]: ≥ 10 µM
time to reversal of SMA after exposure [2]: ≤ 10 min
prevention of electromechanical instability in model of abnormal automaticity (FIG. 6) [2]: prevent the electromechanical instability

Compound: COc1ccccc1OCC(O)CN1CCN(CC(=O)Nc2c(C)cccc2C)CC1 (stereo not shown) [ranolazine]
effect on sporadic ectopic activity (SMA) [2]: prevent the sporadic ectopic activity
effect on tachycardic activity (STA) ([1]; high calcium loads, 2-APB and 300 nM (−)BayK 8644, 80 μM ranolazine): suppresses, but does not completely prevent

IC50 ([1]; Rattus norvegicus, BayK 8644 and 2-APB, read-out: IC50 for reversal of STA): ~15 µM
Compound: COc1ccc(CCCOC(Cn2ccnc2)c2ccc(OC)cc2)cc1 (stereo not shown) [SKF-96365, 1-[2-(4-Methoxyphenyl)-2-[3-(4-methoxyphenyl)propoxy]ethyl-1H-imidazole hydrochloride]
prevention and reversal of SMA ([2]; data not shown): prevents and reverse SMA
reversal of STA ([1]; 0.1 Hz-paced, BayK 8644 and 2-APB, ˜50 μM SKF-96365): STA was suppressed
prevention of STA ([1]; data not shown): prevents STA

Compound: CCN(CC)CC(=O)Nc1c(C)cccc1C [lidocaine]
effect on sporadic ectopic activity (SMA) [2]: suppress this arrhythmic activity

Compound: 2-methoxy antimycin A [2MAA]
SMEs in 2MAA-treated appendages ([2]; pre-treated with 80 μM 2MAA, 15 μM 2-APB): none

Compound: O=c1c(O)c(-c2ccc(O)c(O)c2)oc2cc(O)cc(O)c12 [quercetin, 2-(3,4-dihydroxyphenyl)-3,5,7-trihydroxy-4H-chromen-4-one]
prevention of electromechanical instability in model of abnormal automaticity (FIG. 6) [2]: prevent the electromechanical instability
SMEs after pre-treatment (prevention of SMA) [2, 3]: no SMEs
